The values below come from US20250302765A1, “TRIACETYL ANDROGRAPHOLIDE NANOCRYSTAL AND PREPARATION METHOD AND APPLICATION THEREOF” (Henan University, priority 2024, published 2025).

The subject of data set [1] is LPS-induced RAW264.7 cell. The settings on record: supernatant of LPS-induced RAW264.7 cell culture fluid; cited from earlier work.
Details of data set [2]: species or system SD rats. Conditions: rat, in vivo, po, 200 mg/kg. On the procedure:
The triacetyl andrographolide nanocrystal obtained in Example 1 was adopted, and a total of 12 SD rats were used as test objects (half female and half male, 200±20 g).
The rats were randomly divided into 2 groups (n=6, half female and half male) by body weight before a test was started. The test was carried out after fasting without water-deprivation for 12 h, one group was fed with a triacetyl andrographolide active pharmaceutical ingredient suspension (dosage of 200 mg/kg) via intragastric administration, and the other group was fed with a triacetyl andrographolide nanocrystal suspension (50 mg/kg by triacetyl andrographolide) via intragastric administration.
With an active pharmaceutical ingredient as reference, relative bioavailability of the triacetyl andrographolide nanocrystal was calculated according to the following formula:
[formula] • where AUC0-t, nanocrystal and AUC0-t, active pharmaceutical ingredient corresponded to areas under the plasma concentration-time curves at a moment 0-t of the triacetyl andrographolide nanocrystal and the active pharmaceutical ingredient respectively; and
Doseactive pharmaceutical ingredient and Dosenanocrystal corresponded to intragastric administration dosages of the triacetyl andrographolide active pharmaceutical ingredient and the nanocrystal respectively.
• where MRT(0-t) is a mean value of in-vivo retention time of drug molecules, representing time required for eliminating 63.2% of drugs in vivo; • T1/2 is a terminal elimination half-life, which is time required for a terminal phase plasma concentration to decrease by half; • Tmax is time required to reach a peak concentration of drug after administration, this parameter reflects a speed at which a drug enters the body, and the faster the absorption rate, the shorter the time to peak; • Cmax is a peak concentration of drug, the highest value of a plasma concentration occurring after administration, and this parameter is an important indicator reflecting a rate and degree of drug absorption in the body; • Vd is a proportionality constant between a drug dosage in the body and a plasma concentration when a drug reaches dynamic equilibrium in the body, usually with Las the unit, and this parameter reflects the degree of a distribution range of the drug in the body, with higher values indicating the wider distribution; and an apparent volume of distribution is numerically obtained by a ratio of a clearance rate to a terminal elimination rate; • F is bioavailability, a measure for a speed and degree at which a drug is absorbed into blood circulation, and is an important indicator for evaluating a degree of drug absorption; and the bioavailability may be divided into absolute bioavailability and relative bioavailability, the former is used to compare an absorption difference between two administration routes, while the latter is used to evaluate an absorption difference between two preparations; and • CL is a clearance rate, a value of an apparent volume of distribution of drugs cleared from the body per unit time, usually with L/h as the unit, and this parameter is an important parameter reflecting the body's drug disposal characteristics and is closely related to physiological factors; and the clearance rate is obtained according to a ratio of a dosage to AUC(0-∞).

A short description of data set [3]: In-vitro release degree in simulated pulmonary fluid (dialysis bag, HPLC). Conditions: simulated pulmonary fluid pH 7.4, 37° C. In kind it is physicochemical. The method, then: With the triacetyl andrographolide nanocrystal prepared in Example 1 as an experimental subject, an activated dialysis bag with a molecular weight cut-off of 8000-14000 Da was taken, 5 mL of a simulated pulmonary fluid was added into the dialysis bag, the triacetyl andrographolide nanocrystal (0.5 mg by triacetyl andrographolide) was precisely weighed and dispersively suspended in the above simulated pulmonary fluid, two ends were tightened, then the dialysis bag was put into a conical flask containing 100 mL of a simulated pulmonary fluid in-vitro release medium (composition of the medium as shown in Table 1), the conical flask was placed in a constant-temperature gas bath shaker (37° C., 120 r/min), 2 mL of a released liquor was taken at each of different time points (0.5 h, 1 h, 2 h, 4 h, 6 h, 8 h, 12 h, 24 h, 36 h and 48 h) and was filtered through a 0.22 μm filter membrane, subsequence filtrates were taken to determine drug concentrations by adopting an HPLC method, and at the same time, the release medium was supplemented with 2 mL of an isothermal simulated pulmonary fluid. A cumulative release percentage was calculated according to determined results, and a release curve of the nanocrystal was drawn. […]

The subject of data set [4] is rabbits with endotoxic shock. The settings on record: serums of rabbits with endotoxic shock; cited from earlier work.
For data set [5] the following is noted: in vivo; cited from earlier work.

A word on the AUC(0-t): it is exposure summed from dosing to a finite time, without extrapolation to infinity. Broadly, the CL/F is the apparent clearance, not corrected for the fraction that reaches the circulation. As a reminder, the Cmax is the highest concentration seen after dosing. One may read the Tmax as the time at which the peak concentration occurs. In the case of `C=C1CC[C@@H]2[C@](C)(COC(C)=O)[C@H](OC(C)=O)CC[C@@]2(C)[C@@H]1C/C=C1/C(=O)OC[C@H]1OC(C)=O` [active pharmaceutical ingredient, triacetyl andrographolide], in data set [1], the “content of IL-1β” value is on record as “can reduce” and the “content of TNF-α” value was “can reduce”. In data set [2], the “AUC(0-t)” value worked out at 1924 ± 277.9 ng·h/mL, the CL/F is 2000 mL/min/kg, the Cmax was found to be 495.1 ± 172.6 ng/mL and the “MRT(0-t)” value worked out at 8.07 ± 0.22 h. Besides, in data set [2], the T1/2 was 4.79 ± 1.81 h, the Tmax is recorded as 6.67 ± 0.47 h and the Vd was 800 ± 360 L/kg. The cumulative release percentage in data set [3] (12 h) is listed as 39%. In data set [3] (48 h), this molecule showed a cumulative release percentage of 42%. Besides, in data set [4], the “content of IL-1β” value is “can reduce” and the “content of TNF-α” value was “can reduce”. Moreover, in data set [5], the absolute bioavailability was 7.19% and the “absolute bioavailability relative to that of andrographolide” value is on record as “more than 7 times”.
